Experimental data reported in patent US20250215030A1, “STAT MODULATORS AND USES THEREOF” (Recludix Pharma, Inc., priority 2022, published 2025).

Assays:
[1] = target: T1, Recombinant STAT3 protein (STAT3(G127-I722)) (Homo sapiens, UniProt P40763); assay: STAT3 Fluorescence Polarization (FP) Assay; assay type: binding; details: STAT3(G127-I722) 25 nM, probe 5-FAM-GpYLPQTV-NH2 2 nM, 45-minute incubation
T1 construct: STAT3(G127-I722)
Outline: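 Serially diluted compounds (1% DMSO) were mixed with 2 nM fluorescent phosphotyrosine peptide and 25 nM STAT3 construct G127-I722, pH 7.4, incubated 45 min at room temperature. IC50 values from fitted polarization curves are reported as categories A (≤100 nM), B, C, D (>10 μM).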

[2] = target: T2, Recombinant STAT6 protein (STAT6(W123-T658)) (Homo sapiens, UniProt P42226); assay: STAT6 Fluorescence Polarization (FP) Assay; assay type: binding; details: STAT6(W123-T658) 250 nM, probe 5-FAM-ApYKPFQDLI-NH2 2 nM, 45-minute incubation
T2 construct: STAT6(W123-T658)
T2 sequence (P42226 123-658): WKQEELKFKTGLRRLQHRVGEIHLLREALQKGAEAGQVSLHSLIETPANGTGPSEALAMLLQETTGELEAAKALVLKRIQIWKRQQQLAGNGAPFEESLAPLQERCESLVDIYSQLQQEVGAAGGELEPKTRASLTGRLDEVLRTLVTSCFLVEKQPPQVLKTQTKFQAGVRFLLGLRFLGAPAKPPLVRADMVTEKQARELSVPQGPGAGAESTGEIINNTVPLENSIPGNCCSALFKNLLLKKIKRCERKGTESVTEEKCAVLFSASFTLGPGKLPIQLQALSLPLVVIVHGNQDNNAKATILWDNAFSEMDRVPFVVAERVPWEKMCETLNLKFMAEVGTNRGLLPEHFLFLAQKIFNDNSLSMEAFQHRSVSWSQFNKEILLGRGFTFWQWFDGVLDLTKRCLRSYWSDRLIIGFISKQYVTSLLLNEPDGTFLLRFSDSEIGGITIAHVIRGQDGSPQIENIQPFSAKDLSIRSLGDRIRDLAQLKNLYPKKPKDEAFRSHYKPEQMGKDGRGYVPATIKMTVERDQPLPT
Outline: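 Competitive displacement of a fluorescent phosphotyrosine peptide (2 nM) from recombinant STAT6 W123-T658 (250 nM), 45 min at room temperature in 10 mM HEPES pH 7.4, 50 mM NaCl, 2 mM DTT. mP fitted against log compound for IC50, grouped A (≤300 nM) to D (>30 μM).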

T1 sequence (P40763 127-722, species assumed): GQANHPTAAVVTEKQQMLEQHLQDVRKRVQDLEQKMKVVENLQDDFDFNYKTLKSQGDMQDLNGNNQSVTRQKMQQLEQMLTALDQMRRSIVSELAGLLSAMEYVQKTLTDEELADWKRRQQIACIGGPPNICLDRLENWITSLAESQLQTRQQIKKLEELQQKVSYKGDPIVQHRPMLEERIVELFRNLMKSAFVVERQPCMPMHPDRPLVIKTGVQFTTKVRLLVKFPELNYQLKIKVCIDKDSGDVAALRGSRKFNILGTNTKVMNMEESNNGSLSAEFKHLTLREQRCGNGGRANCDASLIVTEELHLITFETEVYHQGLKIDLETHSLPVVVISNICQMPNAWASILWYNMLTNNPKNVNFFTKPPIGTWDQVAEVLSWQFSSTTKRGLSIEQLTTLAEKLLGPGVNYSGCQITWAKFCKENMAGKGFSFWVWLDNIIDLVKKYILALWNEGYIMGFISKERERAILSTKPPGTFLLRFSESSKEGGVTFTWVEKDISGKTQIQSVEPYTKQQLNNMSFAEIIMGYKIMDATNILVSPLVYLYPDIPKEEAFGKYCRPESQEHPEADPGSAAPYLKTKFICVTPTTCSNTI

With `Cc1cn(C)c(N2C[C@H](NC(=O)[C@@H]3CC[C@@H]4C[C@H]5C[C@H]5C[C@H](NC(=O)c5cc6cc(C(F)P(=O)(O)O)ccc6s5)C(=O)N43)[C@@H](F)C2)n1` (stereo partly drawn) [Example 348, ((2-(((3S,6S,7aS,8aR,9aR)-3-(((3S,4S)-1-(1,4-dimethyl-1H-imidazol-2-yl)-4-fluoropyrrolidin-3-yl)carbamoyl)-5-oxodecahydro-1H-cyclopropa[d]pyrrolo[1,2-a]azocin-6-yl)carbamoyl)benzo[b]thiophen-5-yl)fluoromethyl)phosphonic acid] the IC50 [1] was under 0.1 µM and the IC50 [2] was 3 to 30 µM.
`O=C(N[C@H]1C[C@@H]2C[C@@H]2C[C@H]2CC[C@@H](C(=O)N3CC(Cc4cccc(F)c4)C3)N2C1=O)c1cc2cc(CP(=O)(O)O)ccc2s1` [Example 349, ((2-(((3S,6S,7aS,8aR,9aR)-3-(3-(3-fluorobenzyl)azetidine-1-carbonyl)-5-oxodecahydro-1H-cyclopropa[d]pyrrolo[1,2-a]azocin-6-yl)carbamoyl)benzo[b]thiophen-5-yl)methyl)phosphonic acid] gave an IC50 [1] of 0.1 to 1 µM and an IC50 [2] of 3 to 30 µM.
`O=C(N[C@H]1C[C@@H]2C[C@@H]2C[C@H]2CC[C@@H](C(=O)N3CC(Oc4cccnc4)C3)N2C1=O)c1cc2cc(CP(=O)(O)O)ccc2s1` [Example 350, ((2-(((3S,6S,7aS,8aR,9aR)-5-oxo-3-(3-(pyridin-3-yloxy)azetidine-1-carbonyl)decahydro-1H-cyclopropa[d]pyrrolo[1,2-a]azocin-6-yl)carbamoyl)benzo[b]thiophen-5-yl)methyl)phosphonic acid] gave an IC50 [1] of 0.1 to 1 µM and an IC50 [2] of 3 to 30 µM.
`O=C(N[C@H]1C[C@@H]2C[C@@H]2C[C@H]2CC[C@@H](C(=O)N3CC(Oc4ccccn4)C3)N2C1=O)c1cc2cc(CP(=O)(O)O)ccc2s1` [Example 351, ((2-(((3S,6S,7aS,8aR,9aR)-5-oxo-3-(3-(pyridin-2-yloxy)azetidine-1-carbonyl)decahydro-1H-cyclopropa[d]pyrrolo[1,2-a]azocin-6-yl)carbamoyl)benzo[b]thiophen-5-yl)methyl)phosphonic acid] gave an IC50 [1] of 0.1 to 1 µM and an IC50 [2] of 3 to 30 µM.
In the case of `O=C(N[C@H]1C[C@@H]2C[C@@H]2C[C@H]2CC[C@@H](C(=O)N3CC(Cc4ccncc4)C3)N2C1=O)c1cc2cc(CP(=O)(O)O)ccc2s1` [Example 352, ((2-(((3S,6S,7aS,8aR,9aR)-5-oxo-3-(3-(pyridin-4-ylmethyl)azetidine-1-carbonyl)decahydro-1H-cyclopropa[d]pyrrolo[1,2-a]azocin-6-yl)carbamoyl)benzo[b]thiophen-5-yl)methyl)phosphonic acid], the IC50 [1] is reported as 0.1 to 1 µM and the IC50 [2] is reported as over 30 µM.
With `CC(=O)N1CC(NC(=O)[C@@H]2CC[C@@H]3C[C@H]4C[C@H]4C[C@H](NC(=O)c4cc5cc(C(F)P(=O)(O)O)ccc5s4)C(=O)N32)C(F)(F)C1` (stereo partly drawn) [Example 358, ((2-(((3S,6S,7aS,8aR,9aR)-3-((1-acetyl-4,4-difluoropyrrolidin-3-yl)carbamoyl)-5-oxodecahydro-1H-cyclopropa[d]pyrrolo[1,2-a]azocin-6-yl)carbamoyl)benzo[b]thiophen-5-yl)fluoromethyl)phosphonic acid] the IC50 [1] was 0.1 to 1 µM and the IC50 [2] was 3 to 30 µM.
`O=C(N[C@H]1C[C@@H]2C[C@@H]2C[C@H]2CC[C@@H](C(=O)N3CC(Cc4cncnc4)C3)N2C1=O)c1cc2cc(CP(=O)(O)O)ccc2s1` [Example 364, ((2-(((3S,6S,7aS,8aR,9aR)-5-oxo-3-(3-(pyrimidin-5-ylmethyl)azetidine-1-carbonyl)decahydro-1H-cyclopropa[d]pyrrolo[1,2-a]azocin-6-yl)carbamoyl)benzo[b]thiophen-5-yl)methyl)phosphonic acid] gave an IC50 [1] of 1 to 10 µM and an IC50 [2] of over 30 µM.
`O=C(N[C@H]1C[C@@H]2C[C@@H]2C[C@H]2CC[C@@H](C(=O)N3CC(C(O)c4ccccc4)C3)N2C1=O)c1cc2cc(CP(=O)(O)O)ccc2s1` (stereo partly drawn) [Example 365, ((2-(((3S,6S,7aS,8aR,9aR)-3-(3-(hydroxy(phenyl)methyl)azetidine-1-carbonyl)-5-oxodecahydro-1H-cyclopropa[d]pyrrolo[1,2-a]azocin-6-yl)carbamoyl)benzo[b]thiophen-5-yl)methyl)phosphonic acid] showed an IC50 [1] of 1 to 10 µM and an IC50 [2] of 3 to 30 µM.
Work on `Cc1nc(N2C[C@H](NC(=O)[C@@H]3CC[C@@H]4C[C@H]5C[C@H]5C[C@H](NC(=O)c5cc6cc(C(F)P(=O)(O)O)ccc6s5)C(=O)N43)[C@@H](F)C2)n[nH]1` (stereo partly drawn) [Example 366, (fluoro(2-(((3S,6S,7aS,8aR,9aR)-3-(((3S,4S)-4-fluoro-1-(5-methyl-1H-1,2,4-triazol-3-yl)pyrrolidin-3-yl)carbamoyl)-5-oxodecahydro-1H-cyclopropa[d]pyrrolo[1,2-a]azocin-6-yl)carbamoyl)benzo[b]thiophen-5-yl)methyl)phosphonic acid] yielded an IC50 [1] of 0.1 to 1 µM and an IC50 [2] of 3 to 30 µM.
`Cn1ccnc1N1C[C@H](NC(=O)[C@@H]2CC[C@@H]3C[C@H]4C[C@H]4C[C@H](NC(=O)c4cc5cc(C(F)P(=O)(O)O)ccc5s4)C(=O)N32)[C@@H](F)C1` (stereo partly drawn) [Example 367, (fluoro(2-(((3S,6S,7aS,8aR,9aR)-3-(((3S,4S)-4-fluoro-1-(1-methyl-1H-imidazol-2-yl)pyrrolidin-3-yl)carbamoyl)-5-oxodecahydro-1H-cyclopropa[d]pyrrolo[1,2-a]azocin-6-yl)carbamoyl)benzo[b]thiophen-5-yl)methyl)phosphonic acid] gave an IC50 [1] of under 0.1 µM and an IC50 [2] of 3 to 30 µM.
Molecule `O=C(N[C@H]1C[C@@H]2C[C@@H]2C[C@H]2CC[C@@H](C(=O)N3CC(Cc4ccccc4F)C3)N2C1=O)c1cc2cc(CP(=O)(O)O)ccc2s1` [Example 368, ((2-(((3S,6S,7aS,8aR,9aR)-3-(3-(2-fluorobenzyl)azetidine-1-carbonyl)-5-oxodecahydro-1H-cyclopropa[d]pyrrolo[1,2-a]azocin-6-yl)carbamoyl)benzo[b]thiophen-5-yl)methyl)phosphonic acid] has an IC50 [1] of 1 to 10 µM and an IC50 [2] of 3 to 30 µM.
For `O=C(N[C@H]1C[C@@H]2C[C@@H]2C[C@H]2CC[C@@H](C(=O)N3CC(Cc4ccc(F)cc4)C3)N2C1=O)c1cc2cc(CP(=O)(O)O)ccc2s1` [Example 369, ((2-(((3S,6S,7aS,8aR,9aR)-3-(3-(4-fluorobenzyl)azetidine-1-carbonyl)-5-oxodecahydro-1H-cyclopropa[d]pyrrolo[1,2-a]azocin-6-yl)carbamoyl)benzo[b]thiophen-5-yl)methyl)phosphonic acid], the IC50 [1] was 0.1 to 1 µM and the IC50 [2] was 3 to 30 µM.
`O=C(N[C@H]1C[C@@H]2C[C@@H]2C[C@H]2CC[C@@H](C(=O)N3CCOc4ccccc43)N2C1=O)c1cc2cc(C(F)P(=O)(O)O)ccc2s1` (stereo partly drawn) [Example 372, ((2-(((3S,6S,7aS,8aR,9aR)-3-(3,4-dihydro-2H-benzo[b][1,4]oxazine-4-carbonyl)-5-oxodecahydro-1H-cyclopropa[d]pyrrolo[1,2-a]azocin-6-yl)carbamoyl)benzo[b]thiophen-5-yl)fluoromethyl)phosphonic acid] gave an IC50 [1] of 1 to 10 µM and an IC50 [2] of 3 to 30 µM.
`O=C(N[C@H]1C[C@@H]2C[C@@H]2C[C@H]2CC[C@@H](C(=O)N3CCCOc4ccccc43)N2C1=O)c1cc2cc(C(F)P(=O)(O)O)ccc2s1` (stereo partly drawn) [Example 373, (fluoro(2-(((3S,6S,7aS,8aR,9aR)-5-oxo-3-(2,3,4,5-tetrahydrobenzo[b][1,4]oxazepine-5-carbonyl)decahydro-1H-cyclopropa[d]pyrrolo[1,2-a]azocin-6-yl)carbamoyl)benzo[b]thiophen-5-yl)methyl)phosphonic acid] was tested, and the IC50 [1] was 1 to 10 µM and the IC50 [2] was 3 to 30 µM.
`O=C(N[C@H]1C[C@@H]2C[C@@H]2C[C@H]2CC[C@@H](C(=O)N3CC(c4cc(C(F)F)on4)C3)N2C1=O)c1cc2cc(C(F)P(=O)(O)O)ccc2s1` (stereo partly drawn) [Example 375, ((2-(((3S,6S,7aS,8aR,9aR)-3-(3-(5-(difluoromethyl)isoxazol-3-yl)azetidine-1-carbonyl)-5-oxodecahydro-1H-cyclopropa[d]pyrrolo[1,2-a]azocin-6-yl)carbamoyl)benzo[b]thiophen-5-yl)fluoromethyl)phosphonic acid] gave an IC50 [1] of 0.1 to 1 µM and an IC50 [2] of 3 to 30 µM.
In the case of `Cc1cnc(N2C[C@H](NC(=O)[C@@H]3CC[C@@H]4C[C@H]5C[C@H]5C[C@H](NC(=O)c5cc6cc(C(F)P(=O)(O)O)ccc6s5)C(=O)N43)[C@@H](F)C2)n1C` (stereo partly drawn) [Example 376, ((2-(((3S,6S,7aS,8aR,9aR)-3-(((3S,4S)-1-(1,5-dimethyl-1H-imidazol-2-yl)-4-fluoropyrrolidin-3-yl)carbamoyl)-5-oxodecahydro-1H-cyclopropa[d]pyrrolo[1,2-a]azocin-6-yl)carbamoyl)benzo[b]thiophen-5-yl)fluoromethyl)phosphonic acid], the IC50 [1] is reported as under 0.1 µM and the IC50 [2] is reported as 3 to 30 µM.
